From publication PMC11783601, “Analogue-Sensitive Inhibition of Histone Demethylases Uncovers Member-Specific Function in Ribosomal Protein Synthesis” (Journal of the American Chemical Society, 2025)

What was measured:
[1] = test system: asKDM4 mutants (KDM4A-F185A, KDM4C-F187A, KDM4D-F189A and KDM4E-F186A); experiment: Demethylation of extracted full-length histones, Western blot with H3K9me3 antibody; assay type: biochemical, human; conditions: histones extracted from HEK293T cells, 20 µM (Fig S19 legend)
Description: We next tested the inhibitory potential of 6 against these proteins using H3K9me3 peptide substrate and analyzed it by MALDI-MS. […] We subsequently examined the ability of asKDM4 variants to demethylate full-length histones extracted from mammalian cells. HEK293T cells were cultured in the presence of 10 μM n-octyl IOX1, a broad-spectrum inhibitor of demethylases,[41],[42] to generate a hypermethylated proteome (Figure S19). The extracted histone was incubated with the as variants individually, each with or without 6, and the extent of demethylation was analyzed by Western blot using the H3K9me3-specific antibody. […]
directly to ice and 2M Ammonium Acetate was added and left on ice for 5 minutes. […]
The supernatant was transferred to a fresh 1.5 mL centrifuge tube, 132 µL of TCA was added dropwise to precipitate the histones and incubated on ice for 30 mins to 1.5 hr. […] 1 µL of histone extracts was loaded on a 15% gel with the BSA standards to quantify the amount of H3 for the assay. […]
(NH4)2Fe(SO4)2, 2 mM L-ascorbic acid and 50 mM Tris pH 8.0 were incubated with or without 150 µM of L-Leu NOG for 5 minutes on ice, after which substrate (300 µM 2OG and 2 µg of Histone extract) was added to the tube. The assay was incubated at 37 °C for 1.5 hours, the samples were analyzed via western blotting using H3K9me3 specific antibody. […]

MINA = target: T1, MINA (Homo sapiens, UniProt Q8IUF8); experiment: MALDI-based assay for MINA histidyl hydroxylation of peptide; assay type: biochemical; conditions: MALDI-TOF, peptide substrate
T1 construct: we recombinantly expressed the catalytic domains of 12 wild type dioxygenases; His-TEV (N); host or cells: E. coli BL21 (DE3)
Description: MALDI-based assay for C14orf169 (NO66) and MINA: To monitor the enzymatic activity of
C14orf169 and MINA recombinant proteins, previous methods were utilized.10-11 Briefly, 10 µM
each recombinant protein was incubated with 10 µM peptide substrate (NH2-
Ascorbic Acid, 100 µM Iron (II), 50mM HEPES pH 7.5, and 200 µM L-Leu NOG or equivalent
volume of water in 10 µL water. Aliquots were kept on ice for 10 minutes before addition of 200
µM 2OG or equivalent volume of water. After 30-60 minutes incubation at 37 °C, 1 µL sample and
1 µL S-DHB matrix were spotted on a MALDI plate and monitored with Bruker FlexControl in
the reflectron positive mode and analyzed on Bruker FlexAnalysis software. […]

T1 sequence (Q8IUF8 139-271 limits assumed): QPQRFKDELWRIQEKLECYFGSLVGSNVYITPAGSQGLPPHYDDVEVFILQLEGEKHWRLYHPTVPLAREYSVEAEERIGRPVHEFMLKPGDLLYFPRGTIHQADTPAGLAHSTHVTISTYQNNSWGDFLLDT

Structure (SMILES): CC(C)CC(NC(=O)C(=O)O)C(=O)O (stereo not drawn) [compound 6, N-oxalyl leucine]
- inhibition of demethylation of full-length histone H3 by asKDM4 mutants [1]: noticeably inhibited
- inhibition of demethylation of full-length histone H3 by asKDM4 mutants ([1]; listed as NOL 6): inhibits the mutants
- inhibition of MINA (MINA): No inhibition
